# Reference: PMC10604274, “The Antiviral Activity of Varenicline against Dengue Virus Replication during the Post-Entry Stage” (Biomedicines, 2023)
# Biological target: T1, DENV-2 NS2B-NS3 protease (Dengue virus 2 Thailand/16681/84, UniProt P29990)
# T1 construct: NS2BNS3 gene RT-PCR amplified from DENV-2 16681 RNA genome; AVI tag in forward primer, F2A peptide in reverse primer; in pcDNA3.1-HisC (pcDNA-DEN2_NS2BNS3), transiently expressed in HEK293T; parts of the genome polyprotein; with Serine protease subunit NS2B
# Assay: cell-based
# T1 sequence (P29990 1346-2093 limits assumed): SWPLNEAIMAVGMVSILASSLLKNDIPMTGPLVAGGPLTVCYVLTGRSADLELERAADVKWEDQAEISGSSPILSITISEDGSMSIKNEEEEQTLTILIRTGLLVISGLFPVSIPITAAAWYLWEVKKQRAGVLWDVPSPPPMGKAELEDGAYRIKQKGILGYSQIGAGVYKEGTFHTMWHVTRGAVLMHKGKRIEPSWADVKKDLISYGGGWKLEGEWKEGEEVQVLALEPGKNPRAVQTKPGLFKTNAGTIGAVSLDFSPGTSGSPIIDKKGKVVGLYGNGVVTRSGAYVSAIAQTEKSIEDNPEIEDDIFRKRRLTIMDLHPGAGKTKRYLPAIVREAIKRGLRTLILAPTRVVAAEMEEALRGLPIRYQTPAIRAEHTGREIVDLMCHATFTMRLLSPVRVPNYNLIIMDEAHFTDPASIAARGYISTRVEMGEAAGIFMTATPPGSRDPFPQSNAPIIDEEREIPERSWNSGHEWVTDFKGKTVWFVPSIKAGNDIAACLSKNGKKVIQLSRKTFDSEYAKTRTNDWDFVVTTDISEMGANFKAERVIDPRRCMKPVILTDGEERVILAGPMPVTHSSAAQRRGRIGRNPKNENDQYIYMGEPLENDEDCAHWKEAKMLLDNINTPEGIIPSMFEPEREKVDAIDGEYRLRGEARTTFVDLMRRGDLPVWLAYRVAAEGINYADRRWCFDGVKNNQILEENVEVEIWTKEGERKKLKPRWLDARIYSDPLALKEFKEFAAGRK
smiles,measurement,value
c1cnc2cc3c(cc2n1)C1CNCC3C1 [varenicline],IC50,> 20 µM
